# T1: ZmChi19A (Zea mays, UniProt B6TR38, E147A/E169A)
# T1 construct: cDNA from maize root; signal peptide removed; N-terminal 10xHis-SUMO tag kept, TEV site; CBD, catalytic domain and flexible C-terminal domain; pET28b, E. coli; FPLC-purified
# T1 sequence (B6TR38 26-334 E147A/E169A limits assumed): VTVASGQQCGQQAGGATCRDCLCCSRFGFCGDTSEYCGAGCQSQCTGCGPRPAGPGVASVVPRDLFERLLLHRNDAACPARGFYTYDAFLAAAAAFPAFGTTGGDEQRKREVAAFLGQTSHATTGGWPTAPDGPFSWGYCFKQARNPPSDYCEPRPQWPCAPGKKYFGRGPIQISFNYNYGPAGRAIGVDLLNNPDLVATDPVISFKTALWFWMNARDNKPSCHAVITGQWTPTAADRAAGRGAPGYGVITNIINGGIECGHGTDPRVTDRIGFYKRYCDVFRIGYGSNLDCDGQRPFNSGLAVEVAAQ
# B1: CspCh18A (Chitinophaga oryzae) (protein)
# chain: CKKDEARPDNPQTKSEPRVETVTKAGGKSVCYVEVNSNSLLNTGKYTLTTGGQQLFDIAIIFAANINYNTTTGKAVLYNNPNVTNVLVNKNTQIVPLQNKGMKVLLSILGNHQGAGFCNFTSRAAAKAFAQQLADTANYYGLDGIDFDDEYADYGNNGLPQPNDSSFVMLLDELRKLMPTKIISFYYYGPAASRLSWGGKKAGDFINYSWNAMYGTYSVPNVAGLTKANLGPAAVDIQATSQSTANWLATQTKNNGYGIYLWYNLTSTDKHVYFSGVSNILYGSSVTYTP
# notes: signal peptide removed; TEV site, His tag; pET28a, E. coli; TIM-barrel catalytic domain, no CBD; FPLC-purified
# What was measured:
# ZmChi19A = molecular target: T1, ZmChi19A; assay: 4-MU release fluorescence, relative activity; type: biochemical; details: SUMO fusion; catalytic residues mutated
# [1] = substrate: CC(=O)N[C@H]1[C@H](Oc2ccc3c(C)cc(=O)oc3c2)O[C@H](CO)[C@@H](O[C@@H]2O[C@H](CO)[C@@H](O[C@@H]3O[C@H](CO)[C@@H](O)[C@H](O)[C@H]3NC(C)=O)[C@H](O)[C@H]2NC(C)=O)[C@@H]1O; assay: 4-MU release fluorescence, Langmuir fit; type: biochemical, Chitinophaga oryzae; details: 50 °C, pH 8
molecule,measurement,setting,value
CC(=O)N[C@H]1[C@H](Oc2ccc3c(C)cc(=O)oc3c2)O[C@H](CO)[C@@H](O[C@@H]2O[C@H](CO)[C@@H](O[C@@H]3O[C@H](CO)[C@@H](O)[C@H](O)[C@H]3NC(C)=O)[C@H](O)[C@H]2NC(C)=O)[C@@H]1O [4-MU-GlcNAc3],"4-MU release fluorescence, relative activity",ZmChi19A,"ZmChi19A(E147A,E169A) showed almost complete loss of activity"
B1,Km,[1],37 µM
